Reference: patent publication US9212168B2 (priority 2011, dated 2015)

What follows are molecules tested on HCV genotype 1a replicon (assay: HCV genotype 1a replicon assay (NS3 protease activity readout)). Conditions: HCV genotype 1a replicon.
Assay type: cell-based, hepatitis C virus
In short: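 Genotype 1a subgenomic replicon cells (APC89, Huh7.5) were treated with compound dose-responses in G418-free medium, 0.5% DMSO final, for 48 or 72 hours at 37° C. Lysate NS3/4a protease activity measured with 15 μM FRET substrate, 20 min at 37° C (ex 340/em 509 nm); EC50 by 4-parameter fit.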

Compound	Genotype 1a
COC(=O)N[C@H](C(=O)N1C[C@@H](OC)C[C@H]1c1nc(-c2ccc(-c3cc(Cl)c(NC(=O)c4ccc(N5CCN(C(=O)C(C)(C)C(=O)O)C[C@H]5C)nc4)cc3OC(F)(F)F)cc2)c[nH]1)C1CCOCC1 [Example 28-23]	C (C represents pEC50 between and 9 and about 10, (EC50 between 1 nM and 0.1 nM))
COC(=O)N[C@H](C(=O)N1C[C@@H](C)C[C@H]1c1nc(-c2ccc(-c3ccc(NC(=O)c4ccc(N5CCN(C(=O)[C@H]6CC6(C)C)C[C@H]5C)nc4)cc3OC(F)(F)F)cc2)c[nH]1)C(C)C [Example 1-74]	D (D represents pEC50>10 (EC50<0.1 nM))
COC(=O)N[C@H](C(=O)N1C[C@@H](OC)C[C@H]1c1nc(-c2ccc(-c3cc(Cl)c(NC(=O)c4ccc(N5C[C@H](C)N(C(=O)C(C)(C)CO)C[C@H]5C)nc4)cc3OC(F)(F)F)cc2)c[nH]1)C1CCOCC1 [Example 28-5]	D (D represents pEC50>10 (EC50<0.1 nM))
COC(=O)N[C@H](C(=O)N1C[C@@H](OC)C[C@H]1c1nc(-c2ccc(-c3cc(Cl)c(NC(=O)c4ccc(N5CCN(C(=O)C(C)(C)C)C[C@H]5C)nc4)cc3C(F)(F)F)cc2)c[nH]1)C1CCCCC1 [Example 19-17]	C (C represents pEC50 between and 9 and about 10, (EC50 between 1 nM and 0.1 nM))
COC(=O)N[C@H](C(=O)N1C[C@@H](C)C[C@H]1c1nc(-c2ccc(-c3cc(Cl)c(NC(=O)c4ccc(N5CCN(C(=O)C(C)(C)C)C[C@H]5C)nc4)cc3C(F)(F)F)cc2)c[nH]1)C1CCCC1 [Example 19-11]	D (D represents pEC50>10 (EC50<0.1 nM))
COC(=O)NC(C(=O)N1CC(C)CC1c1nc(-c2ccc(-c3ccc(NC(=O)c4ccc(N5CCN(C(=O)C(C)(C)C)CC5C)nc4)cc3OC(F)(F)F)cc2)c[nH]1)C(C)O (stereo not drawn) [Example 13-13]	D (D represents pEC50>10 (EC50<0.1 nM))
COC(=O)NC(C(=O)N1C[C@@H](C)C[C@H]1c1nc(-c2ccc(-c3c(F)cc(NC(=O)c4ccc(N5CCN(C(=O)C(C)(C)C)C[C@H]5C)nc4)cc3F)cc2)c[nH]1)C1CCCCC1 (stereo partly drawn) [Example 21-4]	C (C represents pEC50 between and 9 and about 10, (EC50 between 1 nM and 0.1 nM))
COC(=O)NC(C(=O)N1CC(OC)CC1c1nc(-c2ccc(-c3ccc(NC(=O)c4ccc(N5CCN(C(=O)C(C)(C)C)CC5C)nc4)cc3OC(F)(F)F)cc2)c[nH]1)C(C)(C)O (stereo not drawn) [Example 16-18]	D (D represents pEC50>10 (EC50<0.1 nM))
COC(=O)N[C@H](C(=O)N1C[C@@H](C)C[C@H]1c1nc(-c2ccc(-c3cc(Cl)c(NC(=O)c4ccc(N5CCN(C(=O)C(C)(C)CO)C[C@H]5C)nc4)cc3C(F)(F)F)cc2)c[nH]1)C1CCCCC1 [Example 19-7]	B (B represents pEC50 between 8 and 9 (EC50 between 1 and 10 nM))
COC(=O)NC(C(=O)N1CC(OC)CC1c1nc(-c2ccc(-c3ccc(NC(=O)c4ccc(N5CCN(C(=O)C(C)(C)CO)CC5C)nc4)cc3OC(F)(F)F)cc2)c[nH]1)C(C)OC (stereo not drawn) [Example 16-16]	D (D represents pEC50>10 (EC50<0.1 nM))
COC(=O)N[C@H](C(=O)N1C[C@@H](C)C[C@H]1c1nc(-c2ccc(-c3cc(F)c(NC(=O)c4ccc(N5CCN(C(=O)c6c[nH]cn6)C[C@H]5C)nc4)cc3OC(F)(F)F)cc2)c[nH]1)C(C)C [Example 1-25]	D (D represents pEC50>10 (EC50<0.1 nM))
COC(=O)NC(C(=O)N1CC(OC)CC1c1nc(-c2ccc(-c3cc(F)c(NC(=O)c4ccc(N5CCN(C(=O)C(C)(C)C)CC5C)nc4)cc3OC(F)(F)F)cc2)c[nH]1)C(C)(C)O (stereo not drawn) [Example 16-6]	D (D represents pEC50>10 (EC50<0.1 nM))
CNC(=O)N1CCC[C@@]1(C)C(=O)N1C[C@@H](C)N(c2ccc(C(=O)Nc3cc(OC(F)(F)F)c(-c4ccc(-c5c[nH]c([C@@H]6C[C@H](C)CN6C(=O)[C@@H](NC(=O)OC)C(C)C)n5)cc4)cc3F)cn2)C[C@@H]1C [Example 1-24]	D (D represents pEC50>10 (EC50<0.1 nM))
COC(=O)N[C@H](C(=O)N1C[C@H](C)C[C@H]1c1nc(-c2ccc(-c3cc(Cl)c(C(=O)Nc4ccc(N5CCN(C(=O)C(C)(C)C)C[C@H]5C)nc4)cc3OC(F)(F)F)cc2)c[nH]1)C1CCOCC1 [24-5]	C (C represents pEC50 between and 9 and about 10, (EC50 between 1 nM and 0.1 nM))
CNC(=O)N1CCN(c2ccc(NC(=O)c3ccc(-c4ccc(-c5c[nH]c([C@@H]6C[C@H](C)CN6C(=O)[C@@H](NC(=O)OC)C(C)C)n5)cc4)c(OC(F)(F)F)c3)cn2)[C@H](C)C1 [Example 4-34]	C (C represents pEC50 between and 9 and about 10, (EC50 between 1 nM and 0.1 nM))
COC(=O)N[C@H](C(=O)N1C[C@@H](C)C[C@H]1c1nc(-c2ccc(-c3cc(Cl)c(NC(=O)c4ccc(N5CCN(C(=O)C6(C(F)(F)F)CC6)C[C@H]5C)nc4)cc3OC(F)(F)F)cc2)c[nH]1)C(C)C [Example 1-99]	D (D represents pEC50>10 (EC50<0.1 nM))
CNC(=O)N1CCC[C@@]1(C)C(=O)N1CCN(c2ccc(C(=O)Nc3cc(OC(F)(F)F)c(-c4ccc(-c5c[nH]c([C@@H]6C[C@H](C)CN6C(=O)[C@@H](NC(=O)OC)C(C)C)n5)cc4)cc3F)cn2)[C@H](C)C1 [Example 1-28]	D (D represents pEC50>10 (EC50<0.1 nM))
COC(=O)N[C@H](C(=O)N1C[C@@H](C)C[C@H]1c1nc(-c2ccc(-c3ccc(C(=O)Nc4ccc(N5CCN(C(=O)C6CC6)C[C@H]5C)nc4)cc3OC(F)(F)F)cc2)c(Cl)[nH]1)C(C)C [Example 4-31]	C (C represents pEC50 between and 9 and about 10, (EC50 between 1 nM and 0.1 nM))
COC(=O)N[C@H](C(=O)N1C[C@@H](C)C[C@H]1c1nc(-c2ccc(-c3cc(Cl)c(NC(=O)c4ccc(N5CCN(C(=O)[C@H]6CCCN6C(=O)C(C)C)C[C@H]5C)nc4)cc3OC(F)(F)F)cc2)c[nH]1)C(C)C [Example 1-49]	D (D represents pEC50>10 (EC50<0.1 nM))
COC(=O)N[C@H](C(=O)N1C[C@@H](C)C[C@H]1c1nc(-c2ccc(-c3cc(F)c(C(=O)Nc4ccc(N5CCN(C(=O)[C@H]6CC6(C)C)C[C@H]5C)nc4)cc3OC(F)(F)F)cc2)c(Cl)[nH]1)C(C)C [Example 4-44]	D (D represents pEC50>10 (EC50<0.1 nM))
COC(=O)NC(C(=O)N1C[C@@H](OC)C[C@H]1c1nc(-c2ccc(-c3cc(Cl)c(NC(=O)c4ccc(N5CCN(C(=O)C(C)(C)CO)C[C@H]5C)nc4)cc3C(F)(F)F)cc2)c[nH]1)C1CCS(=O)(=O)CC1 (single isomer, unassigned) [Example 19-12]	D (D represents pEC50>10 (EC50<0.1 nM))
COC(=O)N[C@H](C(=O)N1C[C@@H](C)C[C@H]1c1nc(-c2ccc(-c3ccc(C(=O)Nc4ccc(N5CCN(C(=O)C6CC6(Cl)Cl)C[C@H]5C)nc4)cc3OC(F)(F)F)cc2)c[nH]1)C(C)C (stereo partly drawn) [Example 4-32]	C (C represents pEC50 between and 9 and about 10, (EC50 between 1 nM and 0.1 nM))

Same assay, conditions: Hepatitis C virus, read-out: Genotype 1a, HCV genotype 1a replicon

Compound	EC50
COC(=O)N[C@H](C(=O)N1C[C@@H](C)C[C@H]1c1nc(-c2ccc(-c3cc(Cl)c(NC(=O)c4ccc(N5CCN(C(=O)C(C)(C)C)C[C@H]5C)nc4)cc3OC(F)(F)F)cc2)c[nH]1)[C@H](C)O [Example 13-6]	< 0.1 nM
COC(=O)N[C@H](C(=O)N1C[C@@H]([S+](C)[O-])C[C@H]1c1nc(-c2ccc(-c3ccc(C(=O)Nc4ccc(N5CCN(C(=O)C(C)(C)C)C[C@H]5C)nc4)cc3OC(F)(F)F)cc2)c[nH]1)C(C)C (stereo partly drawn) [Example 6-19]	0.1 to 1 nM
CCC(CO)(CO)C(=O)N1CCN(c2ccc(C(=O)Nc3cc(OC(F)(F)F)c(-c4ccc(-c5c[nH]c([C@@H]6C[C@H](C)CN6C(=O)[C@@H](NC(=O)OC)C(C)C)n5)cc4)cc3Cl)cn2)[C@H](C)C1 [Example 12-4]	< 0.1 nM
COC(=O)N[C@H](C(=O)N1C[C@@H](C)C[C@H]1c1nc(-c2ccc(-c3cc(Cl)c(NC(=O)c4ccc(N5CCN(C(=O)C(C)(C)C)C[C@H]5C)nc4)c(Cl)c3OC(F)(F)F)cc2)c[nH]1)C(C)C [Example 5-14]	0.1 to 1 nM
COCC1(C(=O)N2CCN(c3ccc(C(=O)Nc4cc(OC(F)(F)F)c(-c5ccc(-c6c[nH]c([C@@H]7C[C@H](C)CN7C(=O)[C@@H](NC(=O)OC)C(C)C)n6)cc5)cc4Cl)cn3)[C@H](C)C2)CC1 [Example 12-44]	< 0.1 nM
COC(=O)N1CCN(C(C(=O)N2C[C@@H](C)C[C@H]2c2nc(-c3ccc(-c4cc(Cl)c(NC(=O)c5ccc(N6CCN(C(=O)C(C)(C)C)C[C@H]6C)nc5)cc4OC(F)(F)F)cc3)c[nH]2)c2ccccc2)CC1 (stereo partly drawn) [Example 13-4]	0.1 to 1 nM
COC(=O)N[C@H](C(=O)N1C[C@@H](C)C[C@H]1c1nc(-c2ccc(-c3cc(Cl)c(NC(=O)c4ccc(N5CCN(C(=O)C(C)(C)C)C[C@H]5C)nc4)cc3OC(F)(F)F)cc2)c(CO)[nH]1)C(C)C [Example 5-12]	< 0.1 nM
COC(=O)N[C@H](C(=O)N1C[C@@H](C)C[C@H]1c1nc(-c2ccc(-c3cc(Cl)c(NC(=O)c4ccc(N5CCN(C(=O)NN6CCOCC6)C[C@H]5C)nc4)cc3OC(F)(F)F)cc2)c[nH]1)C(C)C [Example 12-18]	< 0.1 nM
COC(=O)N[C@H](C(=O)N1C[C@@H](C)C[C@H]1c1nc(-c2ccc(-c3cc(Cl)c(NC(=O)c4ccc(N5CCN(C(=O)C(C)(C)C(=O)O)C[C@H]5C)nc4)cc3OC(F)(F)F)cc2)c[nH]1)C(C)C [Example 12-58]	0.1 to 1 nM
COC(=O)N[C@H](C(=O)N1C[C@@H]([S+](C)[O-])C[C@H]1c1nc(-c2ccc(-c3ccc(C(=O)Nc4ccc(N5CCN(C(=O)C6CC6(C)C)C[C@H]5C)nc4)cc3OC(F)(F)F)cc2)c[nH]1)C(C)C (stereo partly drawn) [Example 6-18]	0.1 to 1 nM
COCC1(C(=O)N2CCN(c3ccc(C(=O)Nc4cc(OC(F)(F)F)c(-c5ccc(-c6c[nH]c([C@@H]7C[C@H](C)CN7C(=O)[C@@H](NC(=O)OC)C(C)C)n6)cc5)cc4Cl)cn3)[C@H](C)C2)CCC1 [Example 12-45]	< 0.1 nM
